# Data as given in patent publication US8853194B2, “Sterol derivatives and their synthesis and use” (priority 2009, dated 2014).
# Assays:
# [1] = tested on: mouse hepatoma cells H22; settings: 0.02 g/(Kg.d) i.p.
# Experimental: (§1) Ascites mice S180 and H22 that had been vaccinated 7 days were sacrificed by cervical, from which ascites were obtained under sterile conditions respectively; the obtained ascites were washed twice with culture medium RPMI1640, and prepared to a 2×10^7/ml suspension in sterile physiological saline. The suspension of cell S180 was inoculated subcutaneously in the right axillas of 40 mice (0.1 ml/mouse) to produce solid tumor models; while the suspension of cell H22 was inoculated in abdominal cavities of 40 mice (0.2 ml/mouse) by conditional means under sterile conditions to produce ascites tumor models.
# (§2) 90 mice were randomly divided into 9 groups of 3 types, wherein the first type group was a normal control group, the second type groups were S180 solid tumor groups including a positive (cyclophosphamide) control group, a negative control group, a low dose group and a high dose group, and the third type groups were H22 ascites groups including a positive (cyclophosphamide) control group, a negative control group, a low dose group and a high dose group. There were 10 mice in each group. The experiment was repeated for three times.
# (§3) […], the negative control group was injected same volume of corn oil, and the positive control group was injected cyclophosphamide injection solution with the dose of 0.02 g/(Kg.d). The used injection volume was 0.1 ml/mouse and the injection was given as intraperitoneal injection every other day for 15 days. During the 15 days, general activities, fur, feces, etc. of the mice were daily observed. 24 hours after the last administration, mice that had been inoculated subcutaneously with S180 were sacrificed by cervical, from which tumors, thymus and spleen were taken out. After the last administration, mice that had been inoculated in abdominal cavities with H22 were conventionally bred continually, weighted and observed the survival time every day until all the mice in the negative group were dead.
# 24 hours after the inoculation of ascites, the weight and the amount of abdominal circumference of the mice in the groups of ascites models were measured. The drug administration and breeding were continued according to different groups, the weight and the abdominal circumference were measured daily until one day before death. The weight increase (g) and abdominal-circumference increase (cm) were calculated. The experiment started on the day of tumor inoculation and ended on the day when all the mice in the negative control group were dead; the time of deaths were recorded, and the survival extending rate was calculated. Survival Extending Rate(%)=[(mean survival days of treatment group−mean survival days of negative control group)/mean survival days of control group]×100%
# (§4) After finishing the administration in all mice in the solid tumor group, the mice were sacrificed and their spleens and livers were weighed by electronic balance. The spleen index was equivalent to the spleen weight (mg) of mice in each group divided by the weight of the mice, while the liver index was equivalent to the liver weight […] divided by the weight (g) of the mice.
# [2] = tested on: mouse sarcoma cells S180; settings: 0.02 g/(Kg.d) i.p.
# Experimental: as §1, §2, §3, §4
# On the next day after drug withdrawal, the mice in the solid-tumor […] group were weighed and sacrificed by cervical, wherein the serum was collected by eye bleeding for later use in subsequent experiments. Tumor tissues were dissected and weighed by electronic balance. The tumor inhibition rate was calculated as follows. Tumor Inhibition Rate(%)=[(mean tumor weight of negative control group−mean tumor weight of treatment group)/mean tumor weight of control group]×100%
# [3] = tested on: VEGF; settings: positive CTX control group, OD at 450 nm
# Experimental: Before taking tumors out, blood was collected by eye bleeding from mice in the four groups, i.e. the negative control group, the positive CTX control group, the high dose (32 mg/kg) group and the low dose (16 mg/kg) group.
# 1.1 Preparing reagents, samples and standards;
# 1.2 Adding the prepared samples and standards, and reacting for 90 minutes at 37° C.;
# 1.3 Washing the plate twice, adding biotinylated antibody working solution, and reacting for 60 minutes at 37° C.;
# 1.4 Washing the plate for three times, adding ABC working solution, and reacting for 30 minutes at 37° C.;
# 1.5 Washing the plate for five times, adding TMB color liquid, and reacting in dark for 15 minutes at 37° C.;
# 1.6 Adding TMB stop solution, and measuring OD value at 450 nm.
# [4] = tested on: CAM vessels; assay: CAM assay, effect on tumor angiogenesis; type: in vivo, German Roman embryonated eggs; settings: 4 ug/embryo, 72 hours incubation
# Experimental: A sterile gelatin sponge, previously made into disks with diameter of 5 mm by a hole puncher, was used as sample carrier. […] There were 3 dose groups, wherein 5 μl (low dose group, with a dose volume of 2 μg/embryo), 10 μl (middle dose group, with a dose volume of 4 μg/embryo), and 20 μl (high dose group, with a dose volume of 8 μg/embryo) of the solution were added respectively into gelatin sponge slices by a quantitative liquid transfer. The sponge slices were dried in the sterile environment.
# A sterilized egg was placed into a 37° C. incubator with its air chamber upward. In the 7th day, the embryo was positioned on a super-clean bench and sterilized by ethanol, and then it was drilled by a dental drill to form a little hole in the top of the embryo. Egg shell and shell membrane around the hole were carefully removed to form an opening of about 1.2 cm×1.2 cm; after determining a sample-adding site, the air chamber membrane was carefully pricked at the separation place between the chamber and the yolk by a syringe needle; through the prick hole 1-2 drops of sterilized water was injected, which made the chamber membrane and the CAM membrane be separated; after gently removing the upper layer of the chamber membrane with forceps, the CAM membrane in the lower layer was exposed.
# A drug-containing carrier was placed, at the junction area of the CAM membrane and the yolk sac membrane, on a site where vessels were less, and then sealed with sterilized transparent adhesive tape to continue to incubate for 72 hours.
# After the incubation, the transparent adhesive tape stopped on the top of the air chamber was gently removed by forceps; a mixture of methanol/acetone (1:1, 1-2 ml) was gently added; the room temperature was remained constant for 10 minutes. Then, the CAM membrane was carefully peeled off and placed on a glass slide for observing and taking photos. The effect of the compound on angiogenesis was assessed by counting the numbers of large, middle, small blood vessels radiated by the carrier.
SMILES,Abdominal circumference increase (cm) ([1]; H22 ascites mice),Survival extending rate (%) ([1]; H22 ascites mice),Survival time (day) ([1]; H22 ascites mice),Weight increase (g) ([1]; H22 ascites mice),"Weight increase ([1]; H22 ascites mice, listed as cyclophosphamide) [g]",Liver index (100 g/g) ([1]; ascites mice),Spleen index (mg/g) ([1]; ascites mice),Liver index (100 g/g) ([2]; S180 mice),Spleen index (mg/g) ([2]; S180 mice),Tumor inhibition rate (%) ([2]; S180 sarcoma mice),Tumor weight (g) ([2]; S180 sarcoma mice),Weight increase (g) ([2]; S180 sarcoma mice),OD value of serum VEGF [3],Large vessels (number of the vessels) [4],Middle vessels (number of the vessels) [4],Small vessels (number of the vessels) [4]
"O=P1(N(CCCl)CCCl)NCCCO1 (stereo not shown) [Cyclophosphamide, reference compound]",2.30 ± 0.66^(2)(4) cm,57.73,15.3 ± 1.06^(4) day,3.42 ± 1.67^(2)(4) g,3.42,3.26 ± 0.27^(1)(4) 100 g/g,2.45 ± 0.34^(1)(4) mg/g,3.09 ± 0.31^(1)(4) 100 g/g,2.76 ± 0.64^(1)(4) mg/g,62.63,0.518 ± 0.231^(4) g,4.76 ± 1.01^(1)(3) g,0.2205 ± 0.0238,–,–,–
"Cc1ccc(C(=O)Nc2ccc(S(=O)(=O)O)c3cc(S(=O)(=O)O)cc(S(=O)(=O)O)c23)cc1NC(=O)c1cccc(NC(=O)Nc2cccc(C(=O)Nc3cc(C(=O)Nc4ccc(S(=O)(=O)O)c5cc(S(=O)(=O)O)cc(S(=O)(=O)O)c45)ccc3C)c2)c1 [Suramin, reference compound]",–,–,–,–,–,–,–,–,–,–,–,–,–,3.6 ± 2.0,12.4 ± 3.8,6.1 ± 3.0
